US9873702B2, “Heterocyclic compounds as biogenic amine transport modulators” (Southern Research Institute, priority 2014, dated 2018)
Where two headings read alike, the source gives them in different places.

How the values were obtained:
[1] = molecular target: dopamine transporter (DAT) (Rattus norvegicus, UniProt P23977); assay: Dopamine reuptake ([^3H]dopamine uptake) inhibition in rat brain synaptosomes; details: for Emax: read-out: DA Uptake Emax (% I ± SD)
Protocol: Freshly removed caudate was homogenized in 10% ice-cold sucrose with 12 strokes of a hand-held Potter-Elvehj em homogenizer followed by centrifugation at 1000×g for 10 min. The supernatants were saved on ice and used immediately. Transporter activity was assessed using 5 nM [^3H]dopamine. […] The selectivity of the uptake assay for dopamine active transporter (DAT) was optimized by including 100 nM citalopram and 100 nM desipramine as blockers of serotonin transporter (SERT) and norepinephrine transporter (NET) in the sucrose solution and assay buffer. Uptake inhibition assays were conducted at 25° C. and were initiated by adding 100 μl of tissue to 900 μL assay buffer containing test drug and [^3H]dopamine. Test drugs were diluted in assay buffer containing 1 mg/mL bovine serum albumin. Nonspecific uptake was measured by incubating in the presence of 10 μM indatraline. The reactions were stopped after 15 minutes by rapid vacuum filtration with a cell harvester (BRANDEL) over GF/B filters (Whatman) presoaked in wash buffer maintained at 25° C. (10 mM Tris-HCl, pH 7.4/150 mM NaCl). Filters were rinsed with 6 mL wash buffer and retained tritium was quantified by a MicroBeta liquid scintillation counter (PerkinElmer) after overnight extraction in 0.6 mL of liquid scintillation cocktail (Cytoscint, ICN). The data from three experiments were pooled and fit to a dose-response curve equation (using Kaleidagraph), to yield an Emax and EC50 value.
The data from three experiments were pooled and fit to a dose-response curve equation (using KaleidaGraph; Synergy Software, Reading, Pa.) to yield an Emax and IC50 value.

[2] = DA Uptake EC50 (nM ± SD), rat caudate synaptosomes, 5 nM [^3H]dopamine, 15 min, 25° C., three experiments pooled

dopamine transporter (DAT), sequence (P23977 whole entry): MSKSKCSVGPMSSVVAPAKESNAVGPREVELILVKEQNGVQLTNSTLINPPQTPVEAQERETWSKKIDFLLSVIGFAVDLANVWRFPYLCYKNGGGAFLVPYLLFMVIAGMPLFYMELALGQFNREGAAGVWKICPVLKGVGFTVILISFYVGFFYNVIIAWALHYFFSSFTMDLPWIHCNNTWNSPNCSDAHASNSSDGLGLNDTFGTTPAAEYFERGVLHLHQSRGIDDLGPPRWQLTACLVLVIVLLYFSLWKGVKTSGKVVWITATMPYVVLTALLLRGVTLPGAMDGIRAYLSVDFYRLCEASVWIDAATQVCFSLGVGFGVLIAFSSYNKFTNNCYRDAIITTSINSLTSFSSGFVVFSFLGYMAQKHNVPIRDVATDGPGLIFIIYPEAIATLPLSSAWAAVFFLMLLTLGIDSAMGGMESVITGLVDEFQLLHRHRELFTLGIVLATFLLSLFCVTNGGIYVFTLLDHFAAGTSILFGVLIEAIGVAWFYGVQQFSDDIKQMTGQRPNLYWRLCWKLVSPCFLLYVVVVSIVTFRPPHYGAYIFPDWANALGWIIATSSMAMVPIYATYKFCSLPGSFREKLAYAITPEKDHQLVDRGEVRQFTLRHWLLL

SMILES | IC50 [1, 2] | Emax [1] | melting point | IC50 [1]
c1ccc(C(CNc2nc(-c3cccc4[nH]ncc34)nc3ccccc23)c2ccccc2)cc1 [compound 35, N-(2,2-Diphenylethyl)-2-(1H-Indazol-4-yl)Quinazolin-4-Amine] | 475 ± 85 nM | 72 ± 3% | 229 °C | –
O=C(Nc1nc(-c2ccc3nccn3c2)nc2ccccc12)C(c1ccccc1)c1ccccc1 [compound 144, N-(2-(Imidazo[1,2-A]Pyridin-6-yl)Quinazolin-4-yl)-2,2-Diphenylacetamide] | 160 ± 28 nM | 61 ± 2% | 218 to 220 °C | –
Cn1cc(-c2nc(NCC(c3ccccc3)c3ccccc3)c3ccccc3n2)cn1 [compound 76, N-(2,2-Diphenylethyl)-2-(1-Methyl-1H-Pyrazol-4-yl)Quinazolin-4-Amine] | 170 nM | < 100% | 211 °C | –
Cc1cc2nccn2cc1-c1nc(NCCc2ccccc2)c2ccccc2n1 [compound 160, 2-(7-Methylimidazo[1,2-A]Pyridin-6-yl)-N-Phenethylquinazolin-4-Amine] | 11 ± 1 nM | 69 ± 1% | 192 to 196 °C | –
Nc1ncc(-c2nc(NCC(c3ccccc3)c3ccccc3)c3ccccc3n2)cn1 [compound 44, 2-(2-Aminopyrimidin-5-yl)-N-(2,2-Diphenylethyl)Quinazolin-4-Amine] | 79 ± 19 nM | 81 ± 3% | 148 °C | –
c1ccc(C(CNc2nc(N3CCc4[nH]c5ccccc5c4C3)nc3ccccc23)c2ccccc2)cc1 [compound 191, 2-(3,4-Dihydro-1H-Pyrido[4,3-B]Indol-2(5H)-yl)-N-(2,2-Diphenylethyl)Quinazolin-4-Amine] | 16 ± 3 nM | 78 ± 2% | 258 to 260 °C | –
c1ccc2c(NCC(c3ccncc3)c3ccncc3)nc(-c3ccc4[nH]ccc4c3)nc2c1 [compound 173, N-(2,2-Di(pyridin-4-yl)Ethyl)-2-(1H-Indol-5-yl)Quinazolin-4-Amine] | 140 ± 30 nM | 80 ± 3% | 201 to 202 °C | –
c1ccc(C(CNc2nc(-c3ccc4nccnc4c3)nc3ccccc23)c2ccccc2)cc1 [compound 56, N-(2,2-Diphenylethyl)-2-(Quinoxalin-6-yl)Quinazolin-4-Amine] | 89 ± 13 nM | 70 ± 2% | 198 °C | –
Cc1cc2nccn2cc1-c1nc(NCC(c2ccncc2)c2ccncc2)c2ccccc2n1 [compound 157, N-(2,2-Di(Pyridin-4-yl)Ethyl)-2-(7-Methylimidazo[1,2-A]Pyridin-6-yl)Quinazolin-4-Amine] | 15 ± 3 nM | 74 ± 2% | 170 to 175 °C | –
COc1cc2nc(-c3ccc4[nH]ccc4c3)nc(NCC(c3ccccc3)c3ccccc3)c2cc1OC [compound 24, N-(2,2-Diphenylethyl)-2-(1H-indol-5-yl)-6,7-Dimethoxyquinazolin-4-Amine] | 46 nM | 100% | 117 °C | –
c1ccc(C2CN(c3nc(-c4ccc5nccn5c4)nc4ccccc34)Cc3ccccc32)cc1 (centres unmarked) [compound 135, 2-(Imidazo[1,2-A]Pyridin-6-yl)-4-(4-Phenyl-3,4-Dihydroisoquinolin-2(1H)-yl)Quinazoline] | 1490 ± 342 nM | 70 ± 4% | 107 to 109 °C | –
Nc1ncc(-c2nc(NCC(O)(c3ccccc3)c3ccccc3)c3ccccc3n2)cn1 [compound 97, 2-((2-(2-Aminopyrimidin-5-yl)Quinazolin-4-yl)Amino)-1,1-Diphenylethanol] | 665 ± 150 nM | 90 ± 5% | 222 °C | –
Cc1nc(C)c(-c2nc(NCC(c3ccccc3)c3ccccc3)c3ccccc3n2)s1 [compound 54, 2-(2,4-Dimethylthiazol-5-yl)-N-(2,2-Diphenylethyl)Quinazolin-4-Amine] | 72 ± 12 nM | 80 ± 2% | 78 °C | –
c1ccc(CCC(Nc2nc(-c3ccc4nccn4c3)nc3ccccc23)c2ccccc2)cc1 (centres unmarked) [compound 166, N-(1,3-Diphenylpropyl)-2-(Imidazo[1,2-A]Pyridin-6-yl)Quinazolin-4-Amine] | 42 ± 7 nM | 68 ± 2% | 190 to 192 °C | –
FC(F)(F)CNc1ncc(-c2nc(NCC(c3ccccc3)c3ccccc3)c3ccccc3n2)cn1 [compound 45, N-(2,2-Diphenylethyl)-2-(2-((2,2,2-Trifluoroethyl)Amino)Pyrimidin-5-yl)Quinazolin-4-Amine] | 175 ± 68 nM | 58 ± 4% | 224 °C | –
Cc1cc2nccn2cc1-c1nc(NCC(c2ccccc2)C2CC2)c2ccccc2n1 (centres unmarked) [compound 179, N-(2-Cyclopropyl-2-Phenylethyl)-2-(7-Methylimidazo[1,2-A]Pyridin-6-yl)Quinazolin-4-Amine] | 3 ± 1 nM | 80 ± 4% | 236 to 238 °C | –
Cc1cc2nccn2cc1-c1nc(NCC(Oc2ccccc2)c2ccccc2)c2ccccc2n1 (centres unmarked) [compound 177, 2-(7-Methylimidazo[1,2-A]Pyridin-6-yl)-N-(2-Phenoxy-2-Phenylethyl)Quinazolin-4-Amine] | 2.3 ± 0.5 nM | 75 ± 3% | 243 to 246 °C | –

SMILES | IC50 [1, 2] | Emax [1] | melting point | IC50 [1]
c1ccc(C(CNc2nc(-c3ccc4[nH]ncc4c3)nc3ccccc23)c2ccccc2)cc1 [compound 40, N-(2,2-Diphenylethyl)-2-(1H-Indazol-5-yl)Quinazolin-4-Amine] | 124 ± 37 nM | 74 ± 4% | 191 °C | –
c1ccc(C(CNc2nc(-c3ccc4nccn4c3)nc3ccccc23)N2CCCC2)cc1 (centres unmarked) [compound 121, 2-(Imidazo[1,2-A]Pyridin-6-yl)-N-(2-Phenyl-2-(Pyrrolidin-1-yl)Ethyl)Quinazolin-4-Amine] | 170 ± 50 nM | 83 ± 5% | 205 to 207 °C | –
c1ccc(C(CNc2nc(-c3ccc4cn[nH]c4c3)nc3ccccc23)c2ccccc2)cc1 [compound 34, N-(2,2-Diphenylethyl)-2-(1H-Indazol-6-yl)Quinazolin-4-Amine] | 123 ± 20 nM | 68 ± 2% | 223 °C | –
Cc1cc2nccn2cc1-c1nc(NCCc2ccccn2)c2ccccc2n1 [compound 183, (7-Methylimidazo[1,2-A]Pyridin-6-yl)-N-(2-(Pyridin-2-yl)Ethyl)Quinazolin-4-Amine] | 912 ± 195 nM | 77 ± 4% | 224 to 228 °C | –
Cc1cc2nccn2cc1-c1nc(NCC(CN(C)C)c2ccccc2)c2ccccc2n1 (centres unmarked) [compound 192, N1,N1-Dimethyl-N3-(2-(7-Methylimidazo[1,2-A]Pyridin-6-yl)Quinazolin-4-yl)-2-Phenylpropane-1,3-Diamine] | 10 ± 3 nM | 77 ± 4% | 250 to 252 °C | –
COc1ncc(-c2nc(NCC(c3ccccc3)c3ccccc3)c3ccccc3n2)cn1 [compound 29, N-(2,2-Diphenylethyl)-2-(2-Methoxypyrimidin-5-yl)Quinazolin-4-Amine] | 36 ± 2 nM | 71 ± 1% | 67 °C | –
Cc1nc2ccc(-c3nc(NCC(c4ccccc4)c4ccccc4)c4ccccc4n3)cn2c1C [compound 91, 2-(2,3-Dimethylimidazo[1,2-A]Pyridin-6-yl)-N-(2,2-Diphenylethyl)Quinazolin-4-Amine] | 25 ± 3 nM | 72 ± 2% | 232 °C | –
COc1ccc2nc(-c3ccc4[nH]ccc4c3)nc(NCC(c3ccccc3)c3ccccc3)c2c1 [compound 61, N-(2,2-Diphenylethyl)-2-(1H-Indol-5-yl)-6-Methoxyquinazolin-4-Amine] | 115 ± 20 nM | 80 ± 3% | 112 °C | –
c1ccc(C(CNc2nc(-c3ccc4[nH]cnc4c3)nc3ccccc23)c2ccccc2)cc1 [compound 85, 2-(1H-Benzo [D]Imidazol-5-yl)-N-(2,2-Diphenylethyl)Quinazolin-4-Amine] | > 5000 nM | – | 142 °C | –
Cc1cc2nccn2cc1-c1nc(NC(Cc2ccccc2)c2ccccc2)c2ccccc2n1 (centres unmarked) [compound 172, N-(1,2-Diphenylethyl)-2-(7-Methylimidazo[1,2-A]Pyridin-6-yl)Quinazolin-4-Amine] | 5 ± 1.1 nM | 76 ± 2% | 87 to 89 °C | –
c1ccc(CCNc2nc(-c3ccc4nccn4c3)nc3ccccc23)cc1 [compound 161, 2-(Imidazo[1,2-A]Pyridin-6-yl)-N-Phenethylquinazolin-4-Amine] | 168 ± 22 nM | 51 ± 1% | 246 to 247 °C | –
c1ccc(C(CNc2nc(-c3ccc4nncn4c3)nc3ccccc23)c2ccccc2)cc1 [compound 114, 2-([1,2,4]Triazolo[4,3-A]Pyridin-6-yl)-N-(2,2-Diphenylethyl)Quinazolin-4-amine] | 67 ± 7 nM | 68 ± 1% | 224 °C | –
c1ccc(C(CNc2nc(-c3cnc4[nH]ccc4c3)nc3ccccc23)c2ccccc2)cc1 [compound 123, N-(2,2-Diphenylethyl)-2-(1H-Pyrrolo[2,3-B]Pyridin-5-yl)Quinazolin-4-Amine] | 31 ± 5 nM | 69 ± 2% | 193 °C | –
c1ccc(CC(Nc2nc(-c3ccc4nccn4c3)nc3ccccc23)c2ccccc2)cc1 (centres unmarked) [compound 165, N-(1,2-Diphenylethyl)-2-(Imidazo[1,2-A]pyridin-6-yl)Quinazolin-4-Amine] | 14 ± 2 nM | 78 ± 2% | 203 to 204 °C | –
Cl.c1ccc(C(CNc2nc(-c3ccc4nccn4c3)nc3cc(OCCCN4CCOCC4)ccc23)c2ccccc2)cc1 [compound 125, N-(2,2-Diphenylethyl)-2-(Imidazo[1,2-A]Pyridin-6-yl)-7-(3-Morpholinopropoxy)Quinazolin-4-Amine Hydrochloride] | – | 52 ± 3% | 232 °C | 75 ± 25 nM
c1ccc(C(CNc2nc(-c3cnc(N4CCCCC4)nc3)nc3ccccc23)c2ccccc2)cc1 [compound 38, N-(2,2-Diphenylethyl)-2-(2-(Piperidin-1-yl)Pyrimidin-5-yl)Quinazolin-4-Amine] | 1420 nM | 100% | 92 °C | –
